Converted amounts (≈) assume the structure as drawn.
Assays:
Staphylococcus aureus [1] = assay: Minimum inhibitory concentration against Staphylococcus aureus (MSCS; Methicillin sensitive, ciprofloxacin sensitive) MI246; format: functional
Klebsiella pneumoniae [2] = assay: Minimum inhibitory concentration against Klebsiella pneumoniae (CR; Ciprofloxacin resistant) KL328; format: functional
Streptococcus pyogenes = assay: Minimum inhibitory concentration against Streptococcus pyogenes STA2; format: functional
Staphylococcus aureus [3] = assay: Minimum inhibitory concentration against Staphylococcus aureus (MSCS; Methicillin sensitive, ciprofloxacin sensitive) MI273; format: functional
Enterobacter cloacae [4] = assay: Minimum inhibitory concentration against Enterobacter cloacae AE63; format: functional
Staphylococcus aureus [5] = assay: Minimum inhibitory concentration against Staphylococcus aureus (MSCR; Methicillin sensitive, ciprofloxacin resistant) MI345; format: functional
Streptococcus viridans = assay: Minimum inhibitory concentration against Streptococcus viridans STV1; format: functional
Proteus mirabilis = assay: Minimum inhibitory concentration against Proteus mirabilis PR91; format: functional
Staphylococcus aureus [6] = assay: Minimum inhibitory concentration against Staphylococcus aureus (MRCS; Methicillin resistant, ciprofloxacin sensitive) MI300; format: functional
Enterococcus faecalis [7] = assay: Minimum inhibitory concentration against Enterococcus faecalis STD44
Escherichia coli [8] = assay: Minimum inhibitory concentration against Escherichia coli DC0; format: functional
Escherichia coli [9] = assay: Minimum inhibitory concentration against Escherichia coli DC2; format: functional
Pseudomonas aeruginosa = assay: Minimum inhibitory concentration against Pseudomonas aeruginosa PS96; format: functional
Moraxella catarrhalis = assay: Minimum inhibitory concentration against Moraxella catarrhalis MC2; format: functional
[10] = system: Staphylococcus epidermidis; assay: Minimum inhibitory concentration against Staphylococcus epidermidis (MSCR; Methicillin sensitive, ciprofloxacin resistant) SE48; format: functional
Enterococcus faecium [11] = assay: Minimum inhibitory concentration against Enterococcus faecium (VS; Vancomycin sensitive) EF1; format: functional
Staphylococcus aureus [12] = assay: Minimum inhibitory concentration against Staphylococcus aureus (MRCR; Methicillin resistant, ciprofloxacin resistant) MI339
[13] = system: Staphylococcus saprophyticus; assay: Minimum inhibitory concentration against Staphylococcus saprophyticus SS276; format: functional
Enterococcus faecium [14] = assay: Minimum inhibitory concentration against Enterococcus faecium (VR; Vancomycin resistant) EF12; format: functional
Klebsiella pneumoniae [15] = assay: Minimum inhibitory concentration against Klebsiella pneumoniae KL21; format: functional
[16] = molecular target: DNA gyrase (Escherichia coli); assay: Inhibitory activity against wild type gyrase in Escherichia coli
Streptococcus pneumoniae [17] = assay: Minimum inhibitory concentration against Streptococcus pneumoniae (PR; Penicillin resistant) STP51; format: functional
Escherichia coli [18] = assay: Minimum inhibitory concentration against Escherichia coli ES142; format: functional
Streptococcus pneumoniae [19] = assay: Minimum inhibitory concentration against Streptococcus pneumoniae (PS; Penicillin sensitive) STP6301; format: functional
[20] = molecular target: DNA gyrase (Escherichia coli); assay: Inhibitory activity against quinolone resistant gyrase in Escherichia coli
DNA topoisomerase II = DNA topoisomerase II (Homo sapiens, UniProt P11388+Q02880); assay: Inhibitory activity against mammalian DNA topoisomerase II; format: protein assay
Streptococcus pneumoniae [21] = assay: Minimum inhibitory concentration against Streptococcus pneumoniae (PS; Penicillin sensitive) STP6301; MIC (ug/mL) No growth; format: functional, organism-based
Enterococcus faecalis [22] = assay: Minimum inhibitory concentration against Enterococcus faecalis STD44; MIC (ug/mL) No growth
Streptococcus pneumoniae [23] = assay: Minimum inhibitory concentration against Streptococcus pneumoniae PS; Penicillin sensitive) STP64; format: functional
Enterococcus faecium [24] = assay: Minimum inhibitory concentration against Enterococcus faecium (VR; Vancomycin resistant) EF12; MIC (ug/mL) No growth; format: functional, organism-based
Enterobacter cloacae [25] = assay: Minimum inhibitory concentration against Enterobacter cloacae AE63; MIC (ug/mL) No growth; format: functional, organism-based

| Structure (SMILES) | MIC (Staphylococcus aureus [1]) | MIC (Klebsiella pneumoniae [2]) | MIC (Streptococcus pyogenes) | MIC (Staphylococcus aureus [3]) | MIC (Enterobacter cloacae [4]) | MIC (Staphylococcus aureus [5]) | MIC (Streptococcus viridans) | MIC (Proteus mirabilis) | MIC (Staphylococcus aureus [6]) | MIC (Escherichia coli [8]) | MIC (Escherichia coli [9]) | MIC (Pseudomonas aeruginosa) | MIC (Moraxella catarrhalis) | MIC [10] | MIC (Enterococcus faecium [11]) | MIC (Staphylococcus aureus [12]) | MIC [13] | MIC (Klebsiella pneumoniae [15]) | IC50 [16] | MIC (Escherichia coli [18]) | further results |
| --- | --- | --- | --- | --- | --- | --- | --- | --- | --- | --- | --- | --- | --- | --- | --- | --- | --- | --- | --- | --- | --- |
| C[C@H]1COc2c(N3CCN(C)CC3)c(F)cc3c(=O)c(C(=O)O)cn1c23.C[C@H]1COc2c(N3CCN(C)CC3)c(F)cc3c(=O)c(C(=O)O)cn1c23.O [LEVOFLOXACIN] | 0.12 mg/L | 4 mg/L | 0.5 mg/L | 0.12 mg/L | 0.008 mg/L | 2 mg/L | 0.25 mg/L | 0.06 mg/L | 0.12 mg/L | 0.25 mg/L | 0.25 mg/L | 0.5 mg/L | 0.03 mg/L | 2 mg/L | 0.25 mg/L | 2 mg/L | 0.12 mg/L | < 0.004 mg/L |  |  | MIC (Enterococcus faecalis [7]): 0.25 mg/L; MIC (Enterococcus faecium [14]): 1 mg/L |
| C[C@H]1COc2c(N3CC[C@@H](C(C)(C)N)C3)ccc3c(=O)c(C(=O)O)cn1c23 | 0.063 mg/L (≈ 0.17 µM) | > 8 mg/L | 0.016 mg/L (≈ 0.0431 µM) | 0.125 mg/L (≈ 0.337 µM) | 0.25 mg/L (≈ 0.673 µM) | 2 mg/L (≈ 5.38 µM) | 1 mg/L (≈ 2.69 µM) | 4 mg/L (≈ 10.8 µM) | 0.063 mg/L (≈ 0.17 µM) | 4 mg/L (≈ 10.8 µM) | 0.125 mg/L (≈ 0.337 µM) | 4 mg/L (≈ 10.8 µM) | 0.063 mg/L (≈ 0.17 µM) | 1 mg/L (≈ 2.69 µM) | 1 mg/L (≈ 2.69 µM) | 2 mg/L (≈ 5.38 µM) | 0.031 mg/L (≈ 0.0835 µM) | 0.031 mg/L (≈ 0.0835 µM) | 3.2 mg/L (≈ 8.62 µM) | 0.5 mg/L (≈ 1.35 µM) | MIC (Streptococcus pneumoniae [17]): 0.5 mg/L (≈ 1.35 µM); MIC (Streptococcus pneumoniae [19]): 0.016 mg/L (≈ 0.0431 µM); MIC (Enterococcus faecalis [7]): 0.125 mg/L (≈ 0.337 µM); IC50 [20]: > 102 mg/L; MIC (Enterococcus faecium [14]): 1 mg/L (≈ 2.69 µM); IC50 (DNA topoisomerase II): 150 mg/L (≈ 404 µM) |
| C[C@H](N)[C@@H]1CCN(c2ccc3c(=O)c(C(=O)O)cn4c3c2OC[C@@H]4C)C1 | 0.031 mg/L (≈ 0.0867 µM) | > 8 mg/L | 0.016 mg/L (≈ 0.0448 µM) | 0.125 mg/L (≈ 0.35 µM) | 0.125 mg/L (≈ 0.35 µM) | 1 mg/L (≈ 2.8 µM) | 0.125 mg/L (≈ 0.35 µM) | 2 mg/L (≈ 5.6 µM) | 0.063 mg/L (≈ 0.176 µM) | 2 mg/L (≈ 5.6 µM) | 0.063 mg/L (≈ 0.176 µM) | 1 mg/L (≈ 2.8 µM) | 0.125 mg/L (≈ 0.35 µM) | 1 mg/L (≈ 2.8 µM) | 1 mg/L (≈ 2.8 µM) | 2 mg/L (≈ 5.6 µM) | 0.125 mg/L (≈ 0.35 µM) | 0.016 mg/L (≈ 0.0448 µM) | 6.4 mg/L (≈ 17.9 µM) | 0.5 mg/L (≈ 1.4 µM) | MIC (Streptococcus pneumoniae [17]): 0.063 mg/L (≈ 0.176 µM); MIC (Enterococcus faecalis [7]): 0.031 mg/L (≈ 0.0867 µM); IC50 [20]: 51.2 mg/L (≈ 143 µM); MIC (Enterococcus faecium [14]): 1 mg/L (≈ 2.8 µM); IC50 (DNA topoisomerase II): 38 mg/L (≈ 106 µM); MIC (Streptococcus pneumoniae [21]): No growth |
| C[C@H]1COc2c(N3CCN(C)CC3)ccc3c(=O)c(C(=O)O)cn1c23 | 4 mg/L (≈ 11.6 µM) | > 32 mg/L | 4 mg/L (≈ 11.6 µM) | 8 mg/L (≈ 23.3 µM) |  | > 32 mg/L | 32 mg/L (≈ 93.2 µM) | 8 mg/L (≈ 23.3 µM) | 4 mg/L (≈ 11.6 µM) | > 32 mg/L | 16 mg/L (≈ 46.6 µM) | > 32 mg/L | 4 mg/L (≈ 11.6 µM) | > 32 mg/L | > 32 mg/L | > 32 mg/L | 4 mg/L (≈ 11.6 µM) | 1 mg/L (≈ 2.91 µM) | 31 mg/L (≈ 90.3 µM) | 8 mg/L (≈ 23.3 µM) | MIC (Streptococcus pneumoniae [17]): 32 mg/L (≈ 93.2 µM); MIC (Enterococcus faecalis [22]): No growth; MIC (Streptococcus pneumoniae [19]): 16 mg/L (≈ 46.6 µM); IC50 [20]: > 500 mg/L; MIC (Streptococcus pneumoniae [23]): 16 mg/L (≈ 46.6 µM); MIC (Enterococcus faecium [24]): No growth; IC50 (DNA topoisomerase II): 250 mg/L (≈ 728 µM); MIC (Enterobacter cloacae [25]): No growth |
| C[C@H]1COc2c(N3CCC[C@H](N)C3)ccc3c(=O)c(C(=O)O)cn1c23 | 2 mg/L (≈ 5.82 µM) | > 32 mg/L | > 32 mg/L | 4 mg/L (≈ 11.6 µM) | 0.25 mg/L (≈ 0.728 µM) | > 32 mg/L | > 32 mg/L | 2 mg/L (≈ 5.82 µM) | 2 mg/L (≈ 5.82 µM) | 16 mg/L (≈ 46.6 µM) | 2 mg/L (≈ 5.82 µM) | > 32 mg/L | 2 mg/L (≈ 5.82 µM) | > 32 mg/L | > 32 mg/L | > 32 mg/L | 16 mg/L (≈ 46.6 µM) | 0.25 mg/L (≈ 0.728 µM) | 63 mg/L (≈ 183 µM) | 1 mg/L (≈ 2.91 µM) | MIC (Enterococcus faecalis [22]): No growth; MIC (Streptococcus pneumoniae [19]): > 32 mg/L; IC50 [20]: > 500 mg/L; MIC (Streptococcus pneumoniae [23]): > 32 mg/L; MIC (Enterococcus faecium [24]): No growth; IC50 (DNA topoisomerase II): > 500 mg/L |

Reference: ChEMBL document CHEMBL1136111 (Bioorg Med Chem Lett, 2003)
